Source: PMC10107140, “Preparative‐Scale Biocatalytic Oxygenation of N‐Heterocycles with a Lyophilized Peroxygenase Catalyst” (Angewandte Chemie (International Ed. in English), 2022)

What was measured:
Format in all cases: biochemical
[1] = target: T1, rAaeUPO-PaDa-I-H (unspecific peroxygenase) (Cyclocybe aegerita, UniProt B9W4V6, F354L/I291V/L110F/V100A/V118I); test: competition-based 5-nitro-1,3-benzodioxole peroxygenase assay; also converted to (R)-alcohol […]
T1 construct: gene APO1; recombinant, expressed in Pichia pastoris, C-terminal histidine tag
T1 sequence (B9W4V6 44-371 V100A/L110F/V118I/I291V/F354L): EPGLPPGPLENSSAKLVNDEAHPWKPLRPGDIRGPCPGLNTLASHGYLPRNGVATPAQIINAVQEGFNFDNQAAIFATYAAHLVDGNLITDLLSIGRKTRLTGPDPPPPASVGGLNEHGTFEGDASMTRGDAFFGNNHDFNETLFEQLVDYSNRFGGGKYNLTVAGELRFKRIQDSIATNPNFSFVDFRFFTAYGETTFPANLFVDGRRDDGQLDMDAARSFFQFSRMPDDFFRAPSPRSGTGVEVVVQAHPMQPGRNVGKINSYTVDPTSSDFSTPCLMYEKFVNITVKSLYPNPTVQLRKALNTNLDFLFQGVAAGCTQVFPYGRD

[2] = target: T1, rAaeUPO-PaDa-I-H (unspecific peroxygenase); test: competition-based 5-nitro-1,3-benzodioxole peroxygenase assay
[3] = target: T1, rAaeUPO-PaDa-I-H (unspecific peroxygenase); test: competition-based 5-nitro-1,3-benzodioxole peroxygenase assay; also converted to (R)-alcohol […]; remark: listed apart in the source

SMILES: CCc1ccccn1 [compound 14, 2-ethylpyridine]
- IC50 [1]: 29500 µM

SMILES: CCc1ccncc1 [compound 6, 4-ethylpyridine]
- IC50 [2]: 16 µM

SMILES: CCc1cccnc1 [compound 10, 3-ethylpyridine]
- IC50 [3]: 700 µM
